Reference: PMC9764404 (ACS infectious diseases, 2022)

Experiments:
Format in all cases: binding
LdtAb [1] = target: T1, LdtAb (Acinetobacter baumannii, UniProt A0A222A2P4); experiment: LC-MS of acyl-enzyme formation; details: covalent, 2 μM enzyme, 200 μM antibiotic, PBS pH 7.4, 22 °C
LdtAb [2] = target: T1, LdtAb; experiment: LC-MS of acyl-enzyme formation; details: covalent; 2 μM enzyme, 200 μM antibiotic; PBS pH 7.4; 22 °C
LdtAb [3] = target: T1, LdtAb; experiment: acylation by reporter substrate; details: covalent; very slow acylation

Compound | % acyl-enzyme after 18 h (LdtAb [1]) [%] | apparent acylation rate constant k2 (LdtAb [2]) [h⁻¹] | acylation by reporter substrate (data not shown) (LdtAb [3])
C[C@@H](O)[C@H]1C(=O)N2C(C(=O)O)=C(S[C@@H]3CN[C@H](CNS(N)(=O)=O)C3)[C@H](C)[C@H]12 [doripenem] | 21 | – | –
C[C@@H](O)[C@H]1C(=O)N2C(C(=O)O)=C(S[C@@H]3CN[C@H](C(=O)Nc4cccc(C(=O)O)c4)C3)[C@H](C)[C@H]12 [ertapenem] | 97 | 0.22 ± 0.01 | –
C[C@@H](O)[C@H]1C(=O)N2C(C(=O)O)=C(SCCN=CN)C[C@H]12 [imipenem] | 95 | – | –
C[C@@H](O)[C@H]1C(=O)N2C(C(=O)O)=C(S[C@@H]3CN[C@H](C(=O)N(C)C)C3)[C@H](C)[C@H]12 [meropenem] | 48 | – | –
O=C(Cc1cccs1)N[C@@H]1C(=O)N2C(C(=O)O)=C(/C=C/c3ccc([N+](=O)[O-])cc3[N+](=O)[O-])CS[C@H]12 [nitrocefin] | – | – | acylation of LdtAb by nitrocefin took more than six hours to reach completion
